“Also recorded” adds a separate entry of the source. Square brackets hold non-standard residues; d marks the D form. Peptide text beside a SMILES is read from it.
Assays:
Assay type in all cases: cell-based
rat erythrocytes = system: rat erythrocytes
Method: In further embodiment of the present invention, hemolytic activity of the peptides was assessed on freshly isolated rat erythrocytes. Heparinized rat blood in saline was initially centrifuged at 1000×g for 10 min to remove the buffy coat. The erythrocyte suspension was further washed thrice with 5 mM Hepes, pH 7.4 containing 150 mM NaCl. Aliquots of cell suspension ( 10^6 cells) in eppendorf tubes were incubated with the peptide in […]° C. for 30 min with gentle mixing. The tubes were then centrifuged and the absorbance of the supernatants was measured at 540 nm. The lysis obtained with 1% triton X 100 was taken as 100%. FIG. 5. Hemolysis of rat erythrocytes as a function of peptide concentration concentration Erythrocytes (-10^6/ml) were incubated in Hepes buffered isotonic saline containing various concentrations of SPFK analogs. SPFK (A). Other symbols same as that in FIG. 1.

microorganisms tested = test: Antimicrobial activity (growth inhibition, MIC); conditions: growth of the microorganisms tested
Method: (§1) In further embodiment of the present invention, for determining antimicrobial activity, antimicrobial activity was assayed as follows: Different concentrations of peptides were added to 1 ml of synthetic medium [KH2PO4, 10.5 g; K2HPC>4, 4.5 g; (NH4)2SO4, 1 g; MgSO4, 0.1 g; L-arginine, 0.1 g and glucose 1% for one litre of medium] for E. coli or nutrient broth for other microorganisms, containing an inocula of the test organism adjusted to ˜10^6 CFU/ml. Microbial growth was determined by monitoring the increase in ODeoo after incubating under aerobic conditions at 37° C. for 6-8 h (30° C. for P. aeruginosa). The bactericidal activity of the peptides was determined by plating suitably diluted cultures after incubation with the peptides on nutrient agar plates. The plates were incubated at 37° C. for 18 h for colony counting. Outer membrane permeabilization assays were done by fluorescent monitoring of uptake of N-phenyl-1-N-naphthyl amine (NPN) (26). […] The excitation monochromator was set at 350 nm and emission at 420 nm was continuously monitored after addition of the peptide from an aqueous stock solution. […] Inner membrane permeability of E. coli W 160.37 was monitored by measuring the p-galactosidase activity in preinduced cells (with 5×10′^4 M IPTG), in the presence of different concentration of the peptide using 0-nitro phenyl-3-D-galactoside (ONPG)(27).

E. coli = test: Bactericidal activity by plating and colony counting; conditions: on E. coli
Method: as §1

Structure (SMILES) | hemolytic activity (in words) (rat erythrocytes) | antimicrobial activity / MIC (in words) (microorganisms tested) | bactericidal concentration (E. coli) | bacteriostatic concentration (E. coli)
CC[C@H](C)[C@H](NC(=O)[C@H](Cc1c[nH]c2ccccc12)NC(=O)[C@H](CCCCN)NC(=O)[C@H](CO)NC(=O)[C@@H](CC(C)C)NC(=O)[C@H](Cc1ccccc1)NC(=O)[C@@H](NC(=O)[C@H](CCCCN)NC(=O)[C@@H](CC(C)C)NC(=O)[C@H](CC(C)C)NC(=O)[C@H](CCCCN)NC(=O)[C@@H]1CCCN1)[C@@H](C)O)C(=O)NCC(=O)O [DSac] (H-PKL[dL]KTF[dL]SKWIG-OH) | very little hemolytic activity | – | – | –
CC[C@H](C)[C@H](NC(=O)[C@H](Cc1c[nH]c2ccccc12)NC(=O)[C@H](CCCCN)NC(=O)[C@H](CO)NC(=O)[C@@H](CC(C)C)NC(=O)[C@H](Cc1ccccc1)NC(=O)[C@@H](NC(=O)[C@H](CCCCN)NC(=O)[C@@H](CC(C)C)NC(=O)[C@H](CC(C)C)NC(=O)[C@H](CCCCN)NC(=O)[C@@H]1CCCN1)[C@@H](C)O)C(=O)NCC(N)=O [DSam] (H-PKL[dL]KTF[dL]SKWIG-NH2; N-terminus assumed) | – | exhibits activity with MIC's comparable to that of SPFK and its retro isomers; also recorded: MICs comparable to that of SPFK and the retro analogs | > 50 µg/mL | 30 µg/L
